Results from patent US6015820A, “4-Aryl-thio-pyridin-2(1H)-ones, medicines containing them and their uses in the treatment of illnesses linked to HIV” (priority 1995, dated 2000).
“Also recorded” adds a separate entry of the source.

Key:
isolated virion HIV-1LAI = assay: infectivity of the isolated virion after treatment with inhibitors (HT4LacZ cells); type: cell-based
Method: H9 cells chronically infected with HIV-1LAI (10^8 /ml) were cocultivated with MT4 cells (10^8 /ml) for 48 hours in an RMPI medium supplemented by 10% of calf foetal serum (CFS). The cells were then removed by centrifugation and then the supernatant liquid was filtered (0.45 μm) to remove residual cells and cell debris.
(§1) After having been incubated with the various inhibitors, the viral supernatants (200 μl) were deposited in the filtering part of a VectaSpin tube (WHATMAN) fitted with an ANAPORE membrane of porosity 0.02 μm. For 10 minutes they were subjected to centrifugation, the acceleration of which reached 6000 g at the filtering membrane. The viral residuums thereby obtained (10-15 μl ) were washed 3 times under the same conditions with 500 μl of RPMI then restored to their initial volumes with RPMI containing 10% of CFS.
The HT4LacZ-1 cells were kept in a DMEM medium (glucose 4.5 g/l) supplemented with 10% of calf foetal serum in the presence of Gentamycin (50 mg/l). These cells stemmed from Hela cells in which had been cloned, on the one hand the gene coding for the human CD4 so as to render them susceptible to infection by the HIV (Chesebro and Wehrly, 1988, J. Virol., 62, 3779-3788), and on the other hand the gene for β-Galactosidase which, placed under the dependent of the LTR of the HIV-1 served as a marker for the viral infection (Rocancourt et al. (1990) J. Virol. 1990 64-6, 2660-2688). When the virus infects such cells after its integration into the cellular genome, the production of the regulatory protein TAT activates the LTR of the HIV. The result is an activation of the gene of β-Galactosidase which leads to its production in the intracellular medium and more particularly in the nucleus. It is this protein that serves as a marker of the infection.
The evening of day 0, the HT4LacZ-1 cells were diluted at the rate of 75000 cells per ml of medium. 100 μl of this suspension was then distributed over a flat bottomed plate with 96 wells and was cultivated overnight at 37° C. (5% of CO2).
The morning of day 1, the supernatant liquid was removed by aspiration. Each well was then complemented with 200 μl of the viral supernatant dilutions to be tested. Each dilution was made in a DMEM medium (glucose 4.5 g/l) supplemented with 10% of CFS. The plates were then placed in an environment at 37° C. in the presence of 5% of CO2.
After 48 hours of culture, the supernatant liquid was aspirated, then each well was washed 3 times in PBS before being complemented with 200 μl of developing buffer (Tris-HCl 50 mM pH=8.5, ONPG 5 mg/ml β-mercapto-ethanol 7 μl/ml Triton×100 0.05%). After 4 hours of incubation at 37° C., the optical density of each well was measured.
The concentration of each of the inhibitors of the IT of the HIV-1 was adjusted to 50 mM in DMSO. The later dilutions were carried out on RPMI 1640. 2 μl of suitable dilutions of each of these inhibitors were added to 198 μl of a freshly unfrozen viral suspension. After 3 hours of incubation at ambient temperature, these suspensions were filtered on 0.02 μ VecraSpin tubes, then washed 3 times with 500 μl of RPMI 1640. The viral residuums were then adjusted to 200 μL with the culture medium (RPMI-10% CFS), then tested with regard to their infectivity on HT4LacZ cells.

[1] = tested on: HIV-1 4200 type E (primary isolate); assay: anti-HIV-1 activity, HIV-1 4200 type E (primary isolate)/PBMC; type: cell-based; conditions: Human immunodeficiency virus 1, Table 4
Method: (§2) The virus production was measured by quantifying the activity of the inverse transcriptase associated with viral particles released into the culture supernatant. In short, cells were infected with 100 TCID50 for 30 minutes; after adsorption of the virus, unbound particles were removed by two washings and the cells were cultivated in the presence of different concentrations of the compounds tested for 5 days before determining the viral production. The concentration inhibiting 50% of the viral multiplication (IC50) came from the computer plot of the median effect of the dose effect results (Chou et al. Elsevier Science Publishers, Cambridge U.K. (1985), 19-28).
(§3) Thirty two compounds according to the invention were studied for their anti-HIV-1 biological activity. […] This compound was then tested with other colonies and other cell lines (Table 4).

[2] = target: T1, endogenous IT of isolated virion (Human immunodeficiency virus type 1 group M subtype B, UniProt P03367); assay: inhibition of the endogenous IT on the isolated virion; type: biochemical; conditions: for IT activity in cpm: Table 7, 10 μM
T1 construct: endogenous in cells; host or cells: isolated HIV-1 virions
Method: as §1

[3] = target: inverse transcriptase of HIV-1 (HIV-1 M:B_ARV2/SF2, UniProt P03369); assay: inverse transcription with HIV-1 RNA as natural matrix (complementary DNA, gel); type: biochemical; conditions: FIG. 10; compound 7c 40-400 nM
Method: FIG. 10 illustrates the dose effect of compound 7c on the inhibition of the inverse transcriptase of HIV-1. The expected complementary DNA, 147 nucleotides long, is shown to the left of the gel (well 1). Wells 2 to 5 correspond to decreasing concentrations of compound 7c (well 2: 400 nM, well 3: 300 nM: well 4: 100 nM and well 5: 40 nM).
The pmCG6 plasmid containing the nucleotide fragment 1-4005 of the HIV-1 (pmal) in psP64, under the control of the promoter of the T7 bacteriophage was provided by Dr. J. L. Darlix. A strain of E.coli HB 101 (1035) recA was used for the amplification of the plasmid. After digestion of this clone with Hinc II and transcription in vitro by using the RNA T7 polymerase, RNAs were obtained from the +50 position of the pmal sequence. The transcription was carried out in vitro and the inverse transcription in the manner described by B. Bordier et al. (1992 Nucleic Acids Res. 20, 5999-6006).
All the compounds were dissolved in dimethyl#sulphoxide (DMSO). The test samples were prepared in the presence of the same final concentration of DMSO. IC50 is the concentration required to inhibit the activity of the IT of the recombinant HIV-1 by 50%.

[4] = tested on: HIV-1 6 type D (primary isolate); assay: anti-HIV-1 activity, HIV-1 6 type D (primary isolate)/PBMC; type: cell-based; conditions: Human immunodeficiency virus 1, Table 4
Method: as §2, §3

## CCc1c(C)[nH]c(=O)c([N+](=O)[O-])c1Sc1cc(C)cc(C)c1 [Compound 7c, 5-ethyl-6-methyl-3-nitro-4-(3', 5'-dimethylphenyl)thio-pyridin-2(1H)-one]
Isolated virion HIV-1LAI; Human immunodeficiency virus 1, 0.1 μM inhibitor, 3 h, 100 TCID50, compared with viral supernatant subjected to same treatments, mean of 1 to 4 experiments, read-out: Activity of the isolated virions after treatment
  activity at 0.1 µM: 60%
Isolated virion HIV-1LAI; Human immunodeficiency virus 1, 1 μM inhibitor, 3 h, 100 TCID50, compared with viral supernatant subjected to same treatments, mean of 1 to 4 experiments, read-out: Activity of the isolated virions after treatment
  activity at 1 µM: 1%
Isolated virion HIV-1LAI; Human immunodeficiency virus 1, 10 μM inhibitor, 3 h, 100 TCID50, compared with viral supernatant subjected to same treatments, mean of 1 to 4 experiments, read-out: Activity of the isolated virions after treatment
  activity at 10 µM: 0%
Isolated virion HIV-1LAI; incubation of 45 minutes, preliminary experiments
  inhibition in infectivity: greater than 98%
Isolated virion HIV-1LAI; isolated virion
  activity on the isolated virion (in words): truly active on the isolated virion; also recorded: capable, after having penetrated the viral particle, of inhibiting the inverse transcriptase and of suppressing the viral infectivity
[1]
  IC50: < 0.1 nM
[2]; first (unheaded) value column, isolated virion control 813
  IT activity in cpm: 32 cpm
[2]; second (unheaded) value column, isolated virion control 809
  IT activity in cpm: 852 cpm
[2]; isolated virions incubated 3 hours
  penetration of envelope and capsid and blocking of IT: appeared to penetrate the envelope and the viral capsid to fix itself onto the IT and to block its activity
[3]
  inhibition with RNA from HIV-1 as natural matrix: strong inhibition
[4]
  IC50: < 0.1 nM
